# Measurements as given in ChEMBL document CHEMBL1152547, “Synthesis and evaluation of anticancer activity of 2-arylamino-6-trifluoromethyl-3-(hydrazonocarbonyl)pyridines” (Bioorg Med Chem, 2009).
# How the values were obtained:
# Type in all cases: functional
# [1] = Cytotoxicity against human NCI60 cells assessed as cell growth at 10 uM after 48 hrs by sulforhodamine B assay; conditions: NCI60, 48 h, read-out: Activity
# [2] = Cytotoxicity against human NCI60 cells after 48 hrs by sulforhodamine B assay; conditions: NCI60, 48 h; for TGI: read-out: pTGI (converted)
# [3] = system: CCRF-CEM; assay: Cytotoxicity against human CCRF-CEM cells after 48 hrs by sulforhodamine B assay
# [4] = system: SR; assay: Cytotoxicity against human SR cells after 48 hrs by sulforhodamine B assay
# [5] = system: OVCAR-3; assay: Cytotoxicity against human OVCAR-3 cells after 48 hrs by sulforhodamine B assay; conditions: OVCAR-3, 48 h; for CC50: read-out: pLC50 (the source's name) (converted); for TGI: read-out: pTGI (converted)
# [6] = system: A498; assay: Cytotoxicity against human A498 cells after 48 hrs by sulforhodamine B assay; conditions: A498, 48 h; for CC50: read-out: pLC50 (the source's name) (converted); for TGI: read-out: pTGI (converted)
# [7] = system: HOP-92; assay: Cytotoxicity against human HOP92 cells after 48 hrs by sulforhodamine B assay; conditions: HOP-92, 48 h; for TGI: read-out: pTGI (converted)
# [8] = system: CAKI-1; assay: Cytotoxicity against human Caki1 cells after 48 hrs by sulforhodamine B assay; conditions: CAKI-1, 48 h
# [9] = system: RXF 393; assay: Cytotoxicity against human RXF393 cells after 48 hrs by sulforhodamine B assay; conditions: RXF 393, 48 h
# [10] = system: T47D; assay: Cytotoxicity against human T47D cells after 48 hrs by sulforhodamine B assay
# [11] = system: HOP-62; assay: Cytotoxicity against human HOP62 cells after 48 hrs by sulforhodamine B assay; conditions: HOP-62, 48 h
# [12] = system: HCT-116; assay: Cytotoxicity against human HCT116 cells after 48 hrs by sulforhodamine B assay; conditions: HCT-116, 48 h
# [13] = system: 786-0; assay: Cytotoxicity against human 786-0 cells after 48 hrs by sulforhodamine B assay; conditions: 786-0, 48 h
# [14] = read-out: pLC50 (the source's name) (converted)
Compound,growth at 10 µM [1],TGI [2],further results
O=C(N/N=C/c1cccnc1)c1ccc(C(F)(F)F)nc1Nc1cccc(C(F)(F)F)c1,70.3%,,
COc1ccc(Cl)cc1Nc1nc(C(F)(F)F)ccc1C(=O)N/N=C/c1ccncc1,62.5%,,
Cc1cc(Cl)ccc1Nc1nc(C(F)(F)F)ccc1C(=O)N/N=C/c1ccc([N+](=O)[O-])cc1,-7.22%,4.68 µM,GI50 [3]: 0.0427 µM; TGI ([3]; read-out: pTGI (converted)): 0.0776 µM
Cc1cc(Cl)ccc1Nc1nc(C(F)(F)F)ccc1C(=O)N/N=C/c1ccc(Cl)cc1Cl,60.1%,,
Cc1ccc(Cl)cc1Nc1nc(C(F)(F)F)ccc1C(=O)N/N=C/c1ccc([N+](=O)[O-])cc1,85.7%,,
Cc1ccc(Cl)cc1Nc1nc(C(F)(F)F)ccc1C(=O)N/N=C/c1ccc(N(C)C)cc1,52.1%,,
O=C(N/N=C/c1ccc([N+](=O)[O-])cc1)c1ccc(C(F)(F)F)nc1Nc1cccc(C(F)(F)F)c1,95.2%,,
Cc1cc(Cl)ccc1Nc1nc(C(F)(F)F)ccc1C(=O)N/N=C/c1ccc(F)cc1,6.66%,7.08 µM,
Cc1ccc(Cl)cc1Nc1nc(C(F)(F)F)ccc1C(=O)N/N=C/c1ccccc1Cl,36.2%,,
COc1cc(/C=N/NC(=O)c2ccc(C(F)(F)F)nc2Nc2ccc(Cl)cc2C)ccc1O,26.8%,10.5 µM,
COc1cc(/C=N/NC(=O)c2ccc(C(F)(F)F)nc2Nc2ccc(Cl)cc2C)cc(OC)c1OC,32.3%,,
Cc1ccc(Cl)cc1Nc1nc(C(F)(F)F)ccc1C(=O)N/N=C/c1cccc(O)c1,90.1%,,
O=C(N/N=C/c1c(Cl)cccc1Cl)c1ccccc1Nc1cccc(C(F)(F)F)c1,90.6%,,
Nc1nc(C(F)(F)F)ccc1C(=O)N/N=C/c1c(Cl)cccc1Cl,102%,,
O=C(N/N=C/c1ccc(F)cc1)c1ccc(C(F)(F)F)nc1Nc1cccc(C(F)(F)F)c1,7.73%,4.47 µM,
Cc1cc(Cl)ccc1Nc1nc(C(F)(F)F)ccc1C(=O)NCC(=O)N/N=C/c1c(Cl)cccc1Cl,68.1%,,
CN(C)c1ccc(/C=N/NC(=O)c2ccc(C(F)(F)F)nc2Nc2cccc(C(F)(F)F)c2)cc1,60.2%,,
COc1ccc(Cl)cc1Nc1nc(C(F)(F)F)ccc1C(=O)N/N=C/c1ccc(F)cc1,36.5%,,
Cc1ccc(Cl)cc1Nc1nc(C(F)(F)F)ccc1C(=O)N/N=C/c1ccncc1,67.9%,,
Cc1cc(Cl)ccc1Nc1nc(C(F)(F)F)ccc1C(=O)N/N=C/c1ccc(Cl)cc1,-7.31%,7.59 µM,
Cc1cc(Cl)ccc1Nc1nc(C(F)(F)F)ccc1C(=O)N/N=C/c1ccncc1,54.2%,,
COc1cc(/C=N/NC(=O)c2ccc(C(F)(F)F)nc2Nc2cccc(C(F)(F)F)c2)ccc1O,50.1%,,
O=C(N/N=C/c1ccccc1Cl)c1ccc(C(F)(F)F)nc1Nc1cccc(C(F)(F)F)c1,34.2%,,
Cc1ccc(Cl)cc1Nc1nc(C(F)(F)F)ccc1C(=O)N/N=C/c1cccnc1,20.9%,12.6 µM,GI50 [4]: 0.0977 µM
Cc1ccc(Cl)cc1Nc1nc(C(F)(F)F)ccc1C(=O)N/N=C/c1ccc(Cl)cc1,0.47%,5.25 µM,GI50 [2]: 1.48 µM

Compound,growth at 10 µM [1],TGI [2],further results
O=C(N/N=C/c1c(Cl)cccc1Cl)c1ccc(C(F)(F)F)nc1Nc1cccc(C(F)(F)F)c1,5.01%,10.2 µM,GI50 [5]: 0.191 µM; CC50 [5]: 77.6 µM; TGI [5]: 0.646 µM; GI50 [6]: 0.191 µM; CC50 [6]: 9.33 µM; TGI [6]: 0.646 µM; GI50 [7]: 0.0447 µM; TGI [7]: 0.417 µM
Cc1ccc(Cl)cc1Nc1nc(C(F)(F)F)ccc1C(=O)N/N=C/c1ccc(Cl)cc1Cl,62.6%,,
COc1ccc(Cl)cc1Nc1nc(C(F)(F)F)ccc1C(=O)N/N=C/c1ccc(N(C)C)cc1,95.6%,,
O=C(N/N=C/c1ccc(Cl)cc1)c1ccc(C(F)(F)F)nc1Nc1cccc(C(F)(F)F)c1,9.64%,6.61 µM,"GI50 [7]: 0.0437 µM; CC50 [7, 14]: 20.9 µM; TGI [7]: 0.589 µM"
COc1ccc(Cl)cc1Nc1nc(C(F)(F)F)ccc1C(=O)N/N=C/c1ccc([N+](=O)[O-])cc1,0.92%,8.71 µM,
COc1ccc(Cl)cc1Nc1nc(C(F)(F)F)ccc1C(=O)N/N=C/c1cccnc1,44.7%,79.4 µM,GI50 [2]: 2.95 µM
COc1ccc(Cl)cc1Nc1nc(C(F)(F)F)ccc1C(=O)N/N=C/c1cc(OC)c(OC)c(OC)c1,17.6%,10.5 µM,
COc1ccc(Cl)cc1Nc1nc(C(F)(F)F)ccc1C(=O)N/N=C/c1cccc(O)c1,59.1%,,
COc1ccc(Cl)cc1Nc1nc(C(F)(F)F)ccc1C(=O)N/N=C/c1ccc(Cl)cc1Cl,72.1%,,
Cc1cc(Cl)ccc1Nc1nc(C(F)(F)F)ccc1C(=O)N/N=C/c1cccc(O)c1,27.1%,11 µM,"GI50 [8]: 0.017 µM; CC50 [8, 14]: 24 µM; TGI ([8]; read-out: pTGI (converted)): 3.31 µM; GI50 [9]: 0.195 µM; TGI ([9]; read-out: pTGI (converted)): 11.2 µM; GI50 [10]: 0.0355 µM; CC50 [10, 14]: 21.4 µM; TGI ([10]; read-out: pTGI (converted)): 2.14 µM"
Cc1cc(Cl)ccc1Nc1nc(C(F)(F)F)ccc1C(=O)N/N=C/c1ccccc1Cl,14.8%,5.13 µM,GI50 [5]: 0.191 µM; CC50 [5]: 8.32 µM; TGI [5]: 0.513 µM; GI50 [6]: < 0.01 µM; CC50 [6]: 17.8 µM; TGI [6]: 2.69 µM
Cc1ccc(Cl)cc1Nc1nc(C(F)(F)F)ccc1C(=O)N/N=C/c1ccc(F)cc1,33%,,
O=C(N/N=C/c1cccc(O)c1)c1ccc(C(F)(F)F)nc1Nc1cccc(C(F)(F)F)c1,103%,,
Cc1ccc(Cl)cc1Nc1nc(C(F)(F)F)ccc1C(=O)N/N=C/c1c(Cl)cccc1Cl,-3.82%,6.17 µM,"GI50 [4]: 0.0562 µM; CC50 [4, 14]: 41.7 µM; TGI ([4]; read-out: pTGI (converted)): 2.69 µM; GI50 [11]: 0.251 µM; CC50 [11, 14]: 5.75 µM; TGI ([11]; read-out: pTGI (converted)): 0.776 µM; GI50 [12]: 0.214 µM; CC50 [12, 14]: 3.31 µM; TGI ([12]; read-out: pTGI (converted)): 0.49 µM; GI50 [13]: 0.251 µM; CC50 [13, 14]: 3.02 µM; TGI ([13]; read-out: pTGI (converted)): 0.603 µM"
COc1cc(/C=N/NC(=O)c2ccc(C(F)(F)F)nc2Nc2cccc(C(F)(F)F)c2)cc(OC)c1OC,44.5%,,
COc1cc(/C=N/NC(=O)c2ccc(C(F)(F)F)nc2Nc2cc(Cl)ccc2OC)ccc1O,42.1%,,
Cc1cc(Cl)ccc1Nc1nc(C(F)(F)F)ccc1C(=O)N/N=C/c1cccnc1,47.2%,,
O=C(N/N=C/c1ccc(Cl)cc1Cl)c1ccc(C(F)(F)F)nc1Nc1cccc(C(F)(F)F)c1,66.3%,,
Cc1cc(Cl)ccc1Nc1nc(C(F)(F)F)ccc1C(=O)N/N=C/c1ccc(N(C)C)cc1,23.2%,66.1 µM,GI50 [2]: 1.7 µM
COc1cc(/C=N/NC(=O)c2ccc(C(F)(F)F)nc2Nc2cc(Cl)ccc2C)ccc1O,47.2%,,
O=C(N/N=C/c1ccncc1)c1ccc(C(F)(F)F)nc1Nc1cccc(C(F)(F)F)c1,10.8%,8.71 µM,
COc1cc(/C=N/NC(=O)c2ccc(C(F)(F)F)nc2Nc2cc(Cl)ccc2C)cc(OC)c1OC,94%,,
O=C(N/N=C/c1c(Cl)cccc1Cl)c1cccnc1Nc1cccc(C(F)(F)F)c1,37.8%,39.8 µM,
O=C(O)CCCc1ccc(N(CCCl)CCCl)cc1 [CHLORAMBUCIL],,35.5 µM,
